Reference: PubChem BioAssay AID1033 (Sanford-Burnham Center for Chemical Genomics, 2008)
The source made the active and inactive calls. The rule behind the calls is not given here.

Biological target: Chaperone protein DnaK (Escherichia coli (strain K12)) (UniProt P0A6Y8)
Assay: E. coli DnaK SBD ligand binding – biophysical, NMR, chaperone (AID 1033)
Details: Purified DnaK SBD

Chain of Chaperone protein DnaK (Escherichia coli (strain K12)) (P0A6Y8 whole entry, looked up): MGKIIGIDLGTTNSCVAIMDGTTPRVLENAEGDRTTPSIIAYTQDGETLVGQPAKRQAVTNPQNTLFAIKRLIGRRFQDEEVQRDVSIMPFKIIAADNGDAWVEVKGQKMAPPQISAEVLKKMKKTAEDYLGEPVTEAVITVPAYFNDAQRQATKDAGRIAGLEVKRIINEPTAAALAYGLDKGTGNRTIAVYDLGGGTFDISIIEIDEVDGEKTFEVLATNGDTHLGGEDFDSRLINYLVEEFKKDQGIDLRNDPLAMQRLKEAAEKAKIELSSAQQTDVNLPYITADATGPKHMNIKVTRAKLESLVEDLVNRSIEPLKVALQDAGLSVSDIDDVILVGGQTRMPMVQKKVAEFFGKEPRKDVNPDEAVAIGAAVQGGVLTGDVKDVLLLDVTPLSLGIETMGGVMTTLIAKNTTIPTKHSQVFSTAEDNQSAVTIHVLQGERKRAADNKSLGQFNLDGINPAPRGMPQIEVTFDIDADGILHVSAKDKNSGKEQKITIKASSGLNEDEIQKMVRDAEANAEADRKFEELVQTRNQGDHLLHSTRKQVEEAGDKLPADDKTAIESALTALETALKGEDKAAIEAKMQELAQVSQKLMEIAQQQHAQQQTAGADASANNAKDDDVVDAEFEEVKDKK

| SMILES | Kd |
| --- | --- |
| OCCCc1nc2ccc(C(F)(F)F)cc2[nH]1 | > 4 mM (inactive) |
| COc1ccc(C(=O)NC2=NCCS2)cc1OC | > 4 mM (inactive) |
| Cc1ccc(CCC(N)=O)o1 | > 4 mM (inactive) |
| CCOC(=O)c1c(-c2ccncc2)csc1N | > 4 mM (inactive) |
| Nc1nc(-c2nc3ccccc3[nH]2)cs1 | > 4 mM (inactive) |
| C=C1C(=O)OC2CC1C(OC(C)=O)C/C(C)=C/CC/C(C)=C/CC[C@]2(C)O (stereo not given in full) | > 4 mM (inactive) |
| Cc1c(C(=O)O)cnn1-c1ccccc1 | > 4 mM (inactive) |
| Cc1ccc(Nc2nc(N)nc(CC#N)n2)cc1 | > 4 mM (inactive) |
| O=C1NC(=S)NC(=O)C1=Cc1cccs1 | > 4 mM (inactive) |
| Cn1ncc(N2CCOCC2)c(Cl)c1=O | > 4 mM (inactive) |
| Nc1ccc(CCC(=O)O)cc1 | > 4 mM (inactive) |
| CC(=O)Nc1cc(N2C(=O)C=CC2=O)ccc1Cl | > 4 mM (inactive) |
| CC(C)C(=O)NCC(c1ccco1)N1CCOCC1 (stereo not given) | > 4 mM (inactive) |
| Nc1cc(=O)[nH]c(SCC(=O)Nc2nccs2)n1 | > 4 mM (inactive) |
| Cc1ccc(S(C)(=O)=O)s1 | > 4 mM (inactive) |
| O=c1c(-c2ccccc2)coc2cc(O)cc(O)c12 | > 4 mM (inactive) |
| NC(=O)c1ccc(N2CCCCC2)c(N)c1 | > 4 mM (inactive) |
| CN(C)c1nc(N)nc(-c2nc3ccccc3s2)n1 | > 4 mM (inactive) |
| CC1(C)C=Cc2c(cc3occ(-c4ccc5c(c4)OCO5)c(=O)c3c2O)O1 | > 4 mM (inactive) |
| Nc1ncnc(NCCOCCO)c1[N+](=O)[O-] | > 4 mM (inactive) |
| NC(=O)CS(=O)(=O)c1ccc2ccccc2c1 | > 4 mM (inactive) |
| NC(=O)/C=C/C(=O)Nc1ccccc1 | > 4 mM (inactive) |
| CCCNC(CC(=O)Nc1cccnc1)C(=O)O (stereo not given) | > 4 mM (inactive) |

| SMILES | Kd |
| --- | --- |
| N=Cc1c(O)n(-c2cccc(Cl)c2)c(=O)[nH]c1=O | > 4 mM (inactive) |
| CN(C)c1ccc(C2CC(=O)CC(=O)C2)cc1 | > 4 mM (inactive) |
| O=C(CN1C(=O)CCC1=O)c1ccccc1 | > 4 mM (inactive) |
| CCOC(=O)c1ccc(F)cc1F | > 4 mM (inactive) |
| CC1(C)CN=C(Nc2nc3ccccc3s2)S1 | > 4 mM (inactive) |
| Cc1noc(-c2ccccc2)c1C(=O)O | > 4 mM (inactive) |
| O=C1C=CC2=C3c4cc(O)c(O)cc4C[C@@]3(O)COC2=C1 | > 4 mM (inactive) |
| CC(=O)Nc1ccc(Oc2nc(C)cc(C)n2)cc1 | > 4 mM (inactive) |
| CN1CC(=O)N=C1N | > 4 mM (inactive) |
| O=C(Nc1cccnc1)Nc1ccc2c(c1)OCO2 | > 4 mM (inactive) |
| Cc1cc(Cl)ccc1NC(=O)C(N)=O | > 4 mM (inactive) |
| CC(=O)NC(=S)Nc1ccc(C(C)=O)cc1 | > 4 mM (inactive) |
| O=C(Nc1cnccn1)c1cccc(C(F)(F)F)c1 | > 4 mM (inactive) |
| OC12CC3CC(C1)C1(NCCS1)C(C3)C2 (stereo not given) | > 4 mM (inactive) |
| Cc1ccn(S(=O)(=O)c2ccc(C(C)(C)C)cc2)n1 | > 4 mM (inactive) |
| CNC(=S)N1CCN(C(=O)c2ccco2)CC1 | > 4 mM (inactive) |
| O=C(O)c1ccc(-n2cncn2)cc1 | > 4 mM (inactive) |
| O=c1/c(=C/c2cccs2)sc2ncnn12 | > 4 mM (inactive) |
| O=C1CCC(=O)N1CNc1ccccc1 | > 4 mM (inactive) |
| Cc1nn(-c2ccccc2)nc1C(N)=O | > 4 mM (inactive) |
| Cn1ncc2c(=O)n(CC(=O)c3ccccc3)cnc21 | > 4 mM (inactive) |
| NCc1cc2ccccc2s1 | > 4 mM (inactive) |
| Nc1cccnc1N1CCOCC1 | > 4 mM (inactive) |

| SMILES | Kd |
| --- | --- |
| COc1cc(NC(=O)c2ccccc2)c(C)cc1N | > 4 mM (inactive) |
| CCN1CCC(NC2CCC(O)CC2)CC1 (stereo not given) | > 4 mM (inactive) |
| CC1=NN2C(=N)/C(=C\c3cccs3)C(=O)N=C2S1 | > 4 mM (inactive) |
| OC1CCN(c2nccc(C(F)(F)F)n2)CC1 | > 4 mM (inactive) |
| CN1C(=O)/C(=C\c2ccc[nH]2)SC1=S | > 4 mM (inactive) |
| CCC(=O)Nc1ccc(-c2nn3c(C)nnc3s2)cc1 | > 4 mM (inactive) |
| NC(CC(=O)O)C(=O)Nc1ccc(Cl)cc1 (stereo not given) | > 4 mM (inactive) |
| CC1(C)Cc2c(C#N)c(N)n(-c3ccccc3)c(=O)c2CO1 | > 4 mM (inactive) |
| Cc1ccc(/C=N/NC(N)=O)o1 | > 4 mM (inactive) |
| COc1ccc2c(c1)OC[C@@H](Cc1ccc(OC)c(OC)c1)[C@H]2O | > 4 mM (inactive) |
| Nc1nnc(SCc2ccc(F)cc2Cl)s1 | > 4 mM (inactive) |
| CSc1nnc2c(n1)OC=Nc1ccccc1-2 | > 4 mM (inactive) |
| CCN1CCC2(CC1)CC1CC3C=CC1(CN2C(C)=O)O3 (stereo not given) | > 4 mM (inactive) |
| CC(C)=NNC(=O)C(=O)NC(C)(C)C | > 4 mM (inactive) |
| O=C1CNC(=O)N1c1cccc(Cl)c1 | > 4 mM (inactive) |
| S=c1[nH]nc(-c2cccnc2)n1Cc1ccccc1 | > 4 mM (inactive) |
| NC1=NC(=O)/C(=C\c2cccnc2)S1 | > 4 mM (inactive) |
| COc1ccc(C(N)=O)cc1NC(C)=O | > 4 mM (inactive) |
| CC(=O)O[C@@H]1CC2C(C)(C)[C@H](O)C=C[C@]2(C)C2CC[C@]3(C)C(=CC(=O)O[C@H]3c3ccoc3)[C@@]21C (stereo not given in full) | > 4 mM (inactive) |
| Cc1ccc(C)n1CCN1CCNCC1 | > 4 mM (inactive) |
| CN1CCC(N(C)C2CCN(C)CC2)CC1 | > 4 mM (inactive) |
| O=C1CCC(=O)N1c1cccnc1 | > 4 mM (inactive) |
| Cc1ccc(C)n1NC(=O)c1cccs1 | > 4 mM (inactive) |

| SMILES | Kd |
| --- | --- |
| CC(C)=CCOc1c2occc2cc2ccc(=O)oc12 | > 4 mM (inactive) |
| COC(=O)CCSCC(=O)Nc1nccs1 | > 4 mM (inactive) |
| O=C(CSc1ncn[nH]1)c1ccc2c(c1)OCCO2 | > 4 mM (inactive) |
| O=c1[nH]c2c(c(=O)n1C1CCCCC1)CCC2 | > 4 mM (inactive) |
| O=C(Cn1cncn1)c1ccc(F)c(F)c1 | > 4 mM (inactive) |
| CC(C)(C)NC(=O)N1CCC(C(N)=O)CC1 | > 4 mM (inactive) |
| COC1=CC23CCCN2CCc2cc4c(cc2C3C1O)OCO4 (stereo not given) | > 4 mM (inactive) |
| CC(=O)n1nc(-c2cccnc2)nc1N | > 4 mM (inactive) |
| CC(=O)c1c(O)cc(C)n(Cc2ccccc2)c1=O | > 4 mM (inactive) |
| O=C(c1ccccc1)c1ccccc1C(=O)N1CCOCC1 | > 4 mM (inactive) |
| CS/C(N)=C\C(C)=O | > 4 mM (inactive) |
| OCc1ccc2c(c1)CCO2 | > 4 mM (inactive) |
| O=S(=O)(Cc1ccccc1)N1CCCCCC1 | > 4 mM (inactive) |
| CC(C(N)=O)N1C(=O)c2ccccc2C1=O (stereo not given) | > 4 mM (inactive) |
| Cc1nn2c3ccccc3nc2n(Cc2ccccc2)c1=O | > 4 mM (inactive) |
| CCCCCC1C(=O)CCC1CC(=O)OC (stereo not given) | > 4 mM (inactive) |
| O=C1NC(=O)C(Cc2ccccc2)C(=O)N1 | > 4 mM (inactive) |
| NC(=O)CC[C@H](N)C(=O)O | > 4 mM (inactive) |
| O=C1CCCN1c1ccc(S(=O)O)cc1 | > 4 mM (inactive) |
| CCC(=O)Nc1cc(C(C)C)c(O)cc1C | > 4 mM (inactive) |
| CC(=O)Nc1ccc2c(C)cc(=O)[nH]c2c1 | > 4 mM (inactive) |
